Data: patent publication US20220218852A1, “NOVEL RADIOLABELLED CXCR4-TARGETING COMPOUNDS FOR DIAGNOSIS AND THERAPY” (PROVINCIAL HEALTH SERVICES AUTHORITY, priority 2019, published 2022)
Positions of bridges follow the written chain, without caps; N, C: chain ends. Non-standard residues stand in square brackets, D forms with d. Residues, ends and D or L forms follow the SMILES beside them. Groups on a side chain read outwards from the residue. *: point of attachment. DOTA = O=C(O)CN1CCN(CC(=O)O)CCN(CC(=O)*)CCN(CC(=O)O)CC1; 2Nal = N[C@@H](Cc1ccc2ccccc2c1)C(=O)O; Lys(iPr) = CC(C)NCCCC[C@H](N)C(=O)O

Key:
Format in all cases: in vivo
[1] = Biodistribution in Z138 tumor-bearing mice; settings: male, NOD.Cg-Rag1^tm1MomII2rg^tm1Wjl/SzJ (NRG), mouse, iv, total radioactivity, Z138
Experimental: (§1) For Daudi, Z138, GRANTA519 and Jeko1 xenografts, male NOD.Cg-Rag1^tm1MomII2rg^tm1Wjl/SzJ (NRG) mice were subcutaneously inoculated on the left flank with 5×10^6 cells (100 μL; 1:1 ratio of PBS/Matrigel) and tumors were grown to a size of 200-500 mm^3. For PC-3 xenografts, male NOD.Cg-Rag1^tm1MomII2rg^tm1Wjl/SzJ (NRG) mice were subcutaneously inoculated on the left flank with 5×10^6 PC-3 cells (100 μL; 1:1 ratio of PBS/Matrigel) and tumors were grown to a size of 200-400 mm^3.
(§2) The mice were euthanized via CO2 inhalation while anesthetized with isoflurane. Tissues were harvested, washed in PBS, blotted dry, weighed, and measured on a Hidex AMG Automatic Gamma Counter.

[2] = tested on: Z138 mantle cell lymphoma xenografts; experiment: Biodistribution in Z138 tumor-bearing mice; settings: Z138
Experimental: as §1, §2

[3] = Biodistribution in GRANTA519 tumor-bearing mice; settings: male, NOD.Cg-Rag1^tm1MomII2rg^tm1Wjl/SzJ (NRG), mouse, iv, total radioactivity, GRANTA519
Experimental: as §1, §2

[4] = tested on: GRANTA519 mantle cell lymphoma xenografts; experiment: Biodistribution in GRANTA519 tumor-bearing mice; settings: GRANTA519
Experimental: as §1, §2

[5] = adrenals, 1 h, read-out: Biodistribution Adrenals
[6] = adrenals, 1 h blocked (7.5 μg LY2510924 i.p.), read-out: Biodistribution Adrenals
[7] = bone, 1 h, read-out: Biodistribution Bone
[8] = bone, 1 h blocked (7.5 μg LY2510924 i.p.), read-out: Biodistribution Bone
[9] = brain, 1 h, read-out: Biodistribution Brain
[10] = brain, 1 h blocked (7.5 μg LY2510924 i.p.), read-out: Biodistribution Brain
[11] = fat, 1 h, read-out: Biodistribution Fat
[12] = fat, 1 h blocked (7.5 μg LY2510924 i.p.), read-out: Biodistribution Fat
[13] = heart, 1 h, read-out: Biodistribution Heart
[14] = heart, 1 h blocked (7.5 μg LY2510924 i.p.), read-out: Biodistribution Heart
[15] = intestine, 1 h, read-out: Biodistribution Intestine
[16] = intestine, 1 h blocked (7.5 μg LY2510924 i.p.), read-out: Biodistribution Intestine
[17] = kidney, 1 h, read-out: Biodistribution Kidney
[18] = kidney, 1 h blocked (7.5 μg LY2510924 i.p.), read-out: Biodistribution Kidney
[19] = liver, 1 h, read-out: Biodistribution Liver
[20] = liver, 1 h blocked (7.5 μg LY2510924 i.p.), read-out: Biodistribution Liver
[21] = lung, 1 h, read-out: Biodistribution Lung
[22] = lung, 1 h blocked (7.5 μg LY2510924 i.p.), read-out: Biodistribution Lung
[23] = muscle, 1 h, read-out: Biodistribution Muscle
[24] = muscle, 1 h blocked (7.5 μg LY2510924 i.p.), read-out: Biodistribution Muscle
[25] = pancreas, 1 h, read-out: Biodistribution Pancreas
[26] = pancreas, 1 h blocked (7.5 μg LY2510924 i.p.), read-out: Biodistribution Pancreas
[27] = spleen, 1 h, read-out: Biodistribution Spleen
[28] = spleen, 1 h blocked (7.5 μg LY2510924 i.p.), read-out: Biodistribution Spleen
[29] = stomach, 1 h, read-out: Biodistribution Stomach
[30] = stomach, 1 h blocked (7.5 μg LY2510924 i.p.), read-out: Biodistribution Stomach
[31] = testes, 1 h, read-out: Biodistribution Testes
[32] = testes, 1 h blocked (7.5 μg LY2510924 i.p.), read-out: Biodistribution Testes
[33] = 1 h blocked (7.5 μg LY2510924 i.p.)

SMILES: CC(C)NCCCC[C@@H]1NC(=O)[C@H](Cc2ccc(O)cc2)NC(=O)[C@H](Cc2ccccc2)NC(=O)CC[C@H](C(=O)N[C@@H](CCCCNC(C)C)C(=O)N[C@@H](CCCCNC(=O)[C@H](CCC(=O)O)NC(=O)[C@H](CCC(=O)O)NC(=O)[C@H](CCC(=O)O)NC(=O)CN2CCN(CC(=O)O)CCN(CC(=O)O)CCN(CC(=O)O)CC2)C(N)=O)NC(=O)CNC(=O)[C@H](Cc2ccc3ccccc3c2)NC(=O)[C@@H](CCCNC(=N)N)NC1=O [[^68Ga]Ga-BL02, metal not drawn] (FY[Lys(iPr)][dR][2Nal]G[dE][Lys(iPr)]K([Glu-Glu-Glu-DOTA])-NH2; lactam N-7)
- tissue uptake at 1 h ([1]; Z138 tumor, 1 h, read-out: Biodistribution Z138 (tumor)): 12.9 %ID/g
- tissue uptake at 1 h ([1]; Z138 tumor, 1 h blocked (7.5 μg LY2510924 i.p.), read-out: Biodistribution Z138 (tumor)): 2.86 %ID/g
- tissue uptake at 1 h [1, 5]: 0.14 %ID/g
- tissue uptake at 1 h [1, 6]: 0.59 %ID/g
- tissue uptake at 1 h ([1]; blood, 1 h, read-out: Biodistribution Blood): 0.3 %ID/g
- tissue uptake at 1 h ([1]; blood, 1 h blocked (7.5 μg LY2510924 i.p.), read-out: Biodistribution Blood): 0.83 %ID/g
- tissue uptake at 1 h [1, 7]: 0.08 %ID/g
- tissue uptake at 1 h [1, 8]: 0.2 %ID/g
- tissue uptake at 1 h [1, 9]: 0.01 %ID/g
- tissue uptake at 1 h [1, 10]: 0.02 %ID/g
- tissue uptake at 1 h [1, 11]: 0.04 %ID/g
- tissue uptake at 1 h [1, 12]: 0.14 %ID/g
- tissue uptake at 1 h [1, 13]: 0.11 %ID/g
- tissue uptake at 1 h [1, 14]: 0.24 %ID/g
- tissue uptake at 1 h [1, 15]: 0.19 %ID/g
- tissue uptake at 1 h [1, 16]: 0.61 %ID/g
- tissue uptake at 1 h [1, 17]: 3.48 %ID/g
- tissue uptake at 1 h [1, 18]: 7.86 %ID/g
- tissue uptake at 1 h [1, 19]: 0.48 %ID/g
- tissue uptake at 1 h [1, 20]: 0.55 %ID/g
- tissue uptake at 1 h [1, 21]: 0.5 %ID/g
- tissue uptake at 1 h [1, 22]: 0.85 %ID/g
- tissue uptake at 1 h [1, 23]: 0.05 %ID/g
- tissue uptake at 1 h [1, 24]: 0.15 %ID/g
- tissue uptake at 1 h [1, 25]: 0.08 %ID/g
- tissue uptake at 1 h [1, 26]: 0.21 %ID/g
- tissue uptake at 1 h [1, 27]: 0.33 %ID/g
- tissue uptake at 1 h [1, 28]: 0.43 %ID/g
- tissue uptake at 1 h [1, 29]: 0.07 %ID/g
- tissue uptake at 1 h [1, 30]: 0.16 %ID/g
- tissue uptake at 1 h [1, 31]: 0.11 %ID/g
- tissue uptake at 1 h [1, 32]: 0.26 %ID/g
- Ratio Tumor: Blood ([2]; 1 h): 43.12
- Ratio Tumor: Bone ([2]; 1 h): 163.06
- Ratio Tumor: Liver ([2]; 1 h): 26.89
- Ratio Tumor: Lung ([2]; 1 h): 26.39
- Ratio Tumor: Muscle ([2]; 1 h): 240.96
- Ratio Tumor: Spleen ([2]; 1 h): 39.22
- Ratio Tumor: Blood [2, 33]: 3.94
- Ratio Tumor: Bone [2, 33]: 19.08
- Ratio Tumor: Liver [2, 33]: 5.23
- Ratio Tumor: Lung [2, 33]: 3.65
- Ratio Tumor: Muscle [2, 33]: 21.59
- Ratio Tumor: Spleen [2, 33]: 7.40
- tissue uptake at 1 h [3, 5]: 3.48 %ID/g
- tissue uptake at 1 h [3, 6]: 7.4 %ID/g
- tissue uptake at 1 h [3, 7]: 0.16 %ID/g
- tissue uptake at 1 h [3, 8]: 0.25 %ID/g
- tissue uptake at 1 h [3, 9]: 0.01 %ID/g
- tissue uptake at 1 h [3, 10]: 0.02 %ID/g
- tissue uptake at 1 h [3, 11]: 0.05 %ID/g
- tissue uptake at 1 h [3, 12]: 0.1 %ID/g
- tissue uptake at 1 h [3, 13]: 0.49 %ID/g
- tissue uptake at 1 h [3, 14]: 0.53 %ID/g
- tissue uptake at 1 h [3, 15]: 0.22 %ID/g
- tissue uptake at 1 h [3, 16]: 0.46 %ID/g
- tissue uptake at 1 h [3, 17]: 0.62 %ID/g
- tissue uptake at 1 h [3, 18]: 0.81 %ID/g
- tissue uptake at 1 h [3, 19]: 0.09 %ID/g
- tissue uptake at 1 h [3, 20]: 0.19 %ID/g
- tissue uptake at 1 h [3, 21]: 0.12 %ID/g
- tissue uptake at 1 h [3, 22]: 0.25 %ID/g
- tissue uptake at 1 h [3, 23]: 0.07 %ID/g
- tissue uptake at 1 h [3, 24]: 0.14 %ID/g
- tissue uptake at 1 h [3, 25]: 0.2 %ID/g
- tissue uptake at 1 h [3, 26]: 0.34 %ID/g
- tissue uptake at 1 h [3, 27]: 0.49 %ID/g
- tissue uptake at 1 h [3, 28]: 0.53 %ID/g
- tissue uptake at 1 h [3, 29]: 0.05 %ID/g
- tissue uptake at 1 h [3, 30]: 0.12 %ID/g
- tissue uptake at 1 h [3, 31]: 0.16 %ID/g
- tissue uptake at 1 h [3, 32]: 0.2 %ID/g
- tissue uptake at 1 h ([3]; tumor (GRANTA519 xenograft), 1 h, read-out: Biodistribution GRANTA519 (tumor)): 5.5 %ID/g
- tissue uptake at 1 h ([3]; tumor (GRANTA519 xenograft), 1 h blocked (7.5 μg LY2510924 i.p.), read-out: Biodistribution GRANTA519 (tumor)): 0.72 %ID/g
- tissue uptake at 1 h ([3]; whole blood, 1 h, read-out: Biodistribution Blood): 0.41 %ID/g
- tissue uptake at 1 h ([3]; whole blood, 1 h blocked (7.5 μg LY2510924 i.p.), read-out: Biodistribution Blood): 0.83 %ID/g
- Ratio Tumor: Blood ([4]; 1 h): 13.83
- Ratio Tumor: Bone ([4]; 1 h): 45.39
- Ratio Tumor: Liver ([4]; 1 h): 11.28
- Ratio Tumor: Lung ([4]; 1 h): 9.12
- Ratio Tumor: Muscle ([4]; 1 h): 83.17
- Ratio Tumor: Spleen ([4]; 1 h): 15.86
- Ratio Tumor: Blood [4, 33]: 0.94
- Ratio Tumor: Bone [4, 33]: 4.27
- Ratio Tumor: Liver [4, 33]: 1.37
- Ratio Tumor: Lung [4, 33]: 0.96
- Ratio Tumor: Muscle [4, 33]: 5.36
- Ratio Tumor: Spleen [4, 33]: 1.78
